Assay results as given in ChEMBL document CHEMBL1201862, “PubChem BioAssay data set” (2004).
Activity calls are given as the source filed them.

Assays:
[1] = target: T1, Intestinal-type alkaline phosphatase (Homo sapiens, UniProt P09923); assay: inhibition of human intestinal alkaline phosphatase – biochemical, dose response (AID 488876); type: functional
[2] = target: T2, Intestinal-type alkaline phosphatase (Mus musculus, UniProt P24822); assay: PubChem AID 488785; type: functional
Large T antigen = Large T antigen (Simian virus 40, UniProt P03070); type: functional, Betapolyomavirus macacae;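 note: Confirmatory-stage PubChem screen for compounds that inhibit SV40 T antigen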
[3] = target: T3, Alkaline phosphatase, tissue-nonspecific isozyme (Homo sapiens, UniProt P05186); assay: TNAP enzyme inhibition by screening hits, dose response, selectivity assay for mouse IAP inhibitor project, biochemical, human TNAP, uHTS hits (AID 488906); type: functional
T3 sequence (P05186 whole entry): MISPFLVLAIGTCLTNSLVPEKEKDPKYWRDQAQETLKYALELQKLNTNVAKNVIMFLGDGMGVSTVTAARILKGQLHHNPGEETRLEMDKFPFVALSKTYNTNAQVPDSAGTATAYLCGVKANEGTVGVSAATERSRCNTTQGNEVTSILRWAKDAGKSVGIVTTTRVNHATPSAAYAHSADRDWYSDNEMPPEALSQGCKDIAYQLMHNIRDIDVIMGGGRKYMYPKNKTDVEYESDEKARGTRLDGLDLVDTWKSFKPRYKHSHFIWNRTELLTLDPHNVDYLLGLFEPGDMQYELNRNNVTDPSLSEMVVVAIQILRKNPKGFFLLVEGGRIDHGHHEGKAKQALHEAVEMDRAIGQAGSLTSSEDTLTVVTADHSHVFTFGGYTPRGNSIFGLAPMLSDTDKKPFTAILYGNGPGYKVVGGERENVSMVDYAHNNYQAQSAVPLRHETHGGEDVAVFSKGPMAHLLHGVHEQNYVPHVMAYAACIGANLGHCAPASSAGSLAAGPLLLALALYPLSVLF

[4] = target: Induced myeloid leukemia cell differentiation protein Mcl-1 (Homo sapiens, UniProt Q07820); type: functional
[5] = target: T4, Voltage-gated N-type calcium channel alpha-1B subunit/Amyloid beta A4 precursor protein-binding family A member 1 (Homo sapiens, UniProt Q00975+Q02410); type: protein assay
[6] = target: T5, Carboxy-terminal domain RNA polymerase II polypeptide A small phosphatase 1 (Homo sapiens, UniProt Q9GZU7); assay: CTDSP1 inhibitors, concentration-response, biochemical, absorbance readout, ultra-high-throughput screen actives (AID 540297); type: functional
T5 sequence (Q9GZU7 whole entry): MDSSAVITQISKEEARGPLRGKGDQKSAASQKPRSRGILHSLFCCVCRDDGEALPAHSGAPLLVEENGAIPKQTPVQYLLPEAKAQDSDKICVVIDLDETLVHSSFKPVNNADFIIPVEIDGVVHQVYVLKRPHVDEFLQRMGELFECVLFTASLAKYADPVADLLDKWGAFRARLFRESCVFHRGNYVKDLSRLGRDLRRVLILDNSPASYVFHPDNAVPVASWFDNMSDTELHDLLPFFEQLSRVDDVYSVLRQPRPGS

[7] = target: DNA (cytosine-5)-methyltransferase 1 (Homo sapiens, UniProt P26358); assay: inhibition of DNA methylation by DNMT1 – biochemical, fluorescent molecular beacon, confirmation (AID 602386); type: functional
[8] = target: T6, Small ubiquitin-related modifier 1 (Homo sapiens, UniProt P63165); assay: SUMO1 protein interaction blockers, potency – biochemical, fluorescence polarization, uHTS hits, dose response (AID 624382); type: functional; settings: read-out: IC50_Mean
[9] = target: T4, Voltage-gated N-type calcium channel alpha-1B subunit/Amyloid beta A4 precursor protein-binding family A member 1; type: protein assay; remark: listed apart in the source
[10] = target: T6, Small ubiquitin-related modifier 1; assay: SUMO1 protein-protein binding blockers, potency – biochemical, FRET, dose response (AID 624383); type: functional; settings: read-out: IC50_Mean
[11] = target: T7, Apoptotic protease-activating factor 1 (Homo sapiens, UniProt O14727); assay: activation of Apaf-1 mediated apoptosis – fluorescent, uHTS hits, dose response (AID 588554); type: functional
T7 sequence (O14727 whole entry): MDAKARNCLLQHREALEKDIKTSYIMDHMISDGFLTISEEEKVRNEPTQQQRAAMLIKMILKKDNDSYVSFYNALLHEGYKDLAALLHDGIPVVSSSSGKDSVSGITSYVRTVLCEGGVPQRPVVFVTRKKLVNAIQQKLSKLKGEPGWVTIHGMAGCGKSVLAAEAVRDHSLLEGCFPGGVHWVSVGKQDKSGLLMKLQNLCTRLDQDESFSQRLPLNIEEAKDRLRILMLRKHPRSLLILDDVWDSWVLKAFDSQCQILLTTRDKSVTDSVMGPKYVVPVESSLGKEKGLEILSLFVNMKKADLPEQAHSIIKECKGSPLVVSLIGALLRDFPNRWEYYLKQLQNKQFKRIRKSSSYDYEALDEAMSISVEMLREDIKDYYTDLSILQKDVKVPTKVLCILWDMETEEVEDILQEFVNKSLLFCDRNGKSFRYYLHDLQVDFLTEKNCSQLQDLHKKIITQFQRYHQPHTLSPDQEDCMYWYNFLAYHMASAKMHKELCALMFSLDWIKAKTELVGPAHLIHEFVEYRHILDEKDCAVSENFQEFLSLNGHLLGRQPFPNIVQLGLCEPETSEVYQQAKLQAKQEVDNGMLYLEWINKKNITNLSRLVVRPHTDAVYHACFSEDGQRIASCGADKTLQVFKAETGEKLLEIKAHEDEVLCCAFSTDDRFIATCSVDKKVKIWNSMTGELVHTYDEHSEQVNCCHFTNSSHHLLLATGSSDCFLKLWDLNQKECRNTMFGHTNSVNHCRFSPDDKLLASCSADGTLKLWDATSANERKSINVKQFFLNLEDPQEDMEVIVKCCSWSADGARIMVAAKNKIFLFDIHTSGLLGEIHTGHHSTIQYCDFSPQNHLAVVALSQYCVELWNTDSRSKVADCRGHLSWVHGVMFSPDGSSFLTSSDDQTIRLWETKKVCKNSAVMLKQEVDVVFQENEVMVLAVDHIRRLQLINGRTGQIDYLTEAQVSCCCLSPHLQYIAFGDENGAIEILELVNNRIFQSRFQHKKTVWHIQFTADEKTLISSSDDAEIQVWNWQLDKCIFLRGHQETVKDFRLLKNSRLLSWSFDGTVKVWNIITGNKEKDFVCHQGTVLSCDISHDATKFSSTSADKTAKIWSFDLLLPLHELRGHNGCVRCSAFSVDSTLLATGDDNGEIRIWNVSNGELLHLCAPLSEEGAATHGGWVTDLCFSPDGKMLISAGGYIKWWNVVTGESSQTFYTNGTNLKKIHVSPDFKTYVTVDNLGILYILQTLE

[12] = target: T1, Intestinal-type alkaline phosphatase; assay: activation of human intestinal alkaline phosphatase – biochemical, luminescent, uHTS hits, set 2, dose response (AID 488817); type: functional;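 note: potency of activators that raise enzyme activity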
[13] = target: T3, Alkaline phosphatase, tissue-nonspecific isozyme; assay: activation of tissue-nonspecific alkaline phosphatase – biochemical, TNAP isozyme, human IAP uHTS hits, selectivity assay for human IAP activator project, dose response (AID 488886); type: functional;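 note: potency of compounds raising TNAP activity as a selectivity check on IAP activators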
[14] = target: T2, Intestinal-type alkaline phosphatase; assay: PubChem AID 488874; type: functional
[15] = target: T1, Intestinal-type alkaline phosphatase; assay: human intestinal alkaline phosphatase activators, dose response, biochemical, luminescence, uHTS hits (AID 463120); type: functional
Phosphomannomutase 2 = Phosphomannomutase 2 (Homo sapiens, UniProt O15305); assay: Counter screen SAR assay for PMM2 inhibitors via a fluorescence intensity assay. [Related pubchem assays (depositor defined):AID1545, AID1574]
[16] = target: T8, Mannose-6-phosphate isomerase (Homo sapiens, UniProt P34949); assay: MPI inhibition at elevated mannose 6-phosphate – biochemical, fluorescence intensity, high mannose 6-phosphate, primary screen (AID 1220)
T8 sequence (P34949 whole entry): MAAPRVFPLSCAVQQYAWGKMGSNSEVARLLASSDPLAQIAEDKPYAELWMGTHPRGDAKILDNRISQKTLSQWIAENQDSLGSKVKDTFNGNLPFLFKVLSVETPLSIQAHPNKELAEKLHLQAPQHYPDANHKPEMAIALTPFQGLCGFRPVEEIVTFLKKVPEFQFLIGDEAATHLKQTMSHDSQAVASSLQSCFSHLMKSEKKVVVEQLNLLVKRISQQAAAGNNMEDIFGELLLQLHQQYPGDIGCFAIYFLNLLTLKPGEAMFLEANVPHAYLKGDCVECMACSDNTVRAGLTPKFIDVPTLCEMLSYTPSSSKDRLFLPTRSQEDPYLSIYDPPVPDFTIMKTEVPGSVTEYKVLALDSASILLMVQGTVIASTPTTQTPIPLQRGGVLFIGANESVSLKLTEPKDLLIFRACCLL

[17] = target: Eukaryotic translation initiation factor 4E (Mus musculus, UniProt P63073); assay: blockers of eIF4G binding by eIF4E – biochemical, TR-FRET, dose response (AID 855); type: functional;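 note: potency for disrupting eIF4E binding to eIF4GI seen as loss of FRET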
[18] = target: T8, Mannose-6-phosphate isomerase; assay: phosphomannose isomerase inhibition – biochemical, fluorescence intensity, confirmation (AID 1535)
[19] = target: T9, Delta-type opioid receptor (Homo sapiens, UniProt P41143); assay: delta opioid receptor blockers – image-based, SAR follow-up (AID 2357); type: functional
[20] = target: T10, Kappa-type opioid receptor (Homo sapiens, UniProt P41145); assay: kappa opioid receptor activation potency – imaging, image-based, SAR follow-up (AID 2359); type: functional
Mu-type opioid receptor [21] = target: T11, Mu-type opioid receptor (Homo sapiens, UniProt P35372); assay: mu opioid receptor activators, image-based, SAR follow-up (AID 2352); type: functional
[22] = target: T10, Kappa-type opioid receptor; assay: kappa opioid receptor blockers, image-based, SAR follow-up (AID 2348); type: functional
[23] = target: T10, Kappa-type opioid receptor; assay: SAR analysis of small molecule agonists of the kappa opioid receptor via a luminescent beta-arrestin assay. [Related pubchem assays (depositor defined):AID1777, AID1786, AID1966, AID2133, AID2136, AID2348, AID2352, AID2357, AID2359, AID2370, AID2420, AID2478, AID2491, AID2492, AID2493, AID2497, AID2498, AID2500, AID449737, AID488822, AID488842]; type: functional
[24] = target: T9, Delta-type opioid receptor; assay: DOR agonists, SAR follow-up, image-based (AID 2370); type: functional
Mu-type opioid receptor [25] = target: T11, Mu-type opioid receptor; assay: mu opioid receptor blockers – image-based, SAR follow-up (AID 2420); type: functional;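 note: compounds added before stimulation of receptor with agonist DAMGO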
[26] = target: T12, Serine/threonine-protein phosphatase (Candida dubliniensis (strain CD36 / CBS 7987 / NCPF 3949 / NRRLY-17841) (Yeast), UniProt B9W6M3); assay: Fluorescence Cell-Based Secondary Assay to Identify Inhibitors of Calcineurin. [Related pubchem assays (depositor defined):AID1979, AID2007]; type: functional
T12 sequence (B9W6M3 whole entry): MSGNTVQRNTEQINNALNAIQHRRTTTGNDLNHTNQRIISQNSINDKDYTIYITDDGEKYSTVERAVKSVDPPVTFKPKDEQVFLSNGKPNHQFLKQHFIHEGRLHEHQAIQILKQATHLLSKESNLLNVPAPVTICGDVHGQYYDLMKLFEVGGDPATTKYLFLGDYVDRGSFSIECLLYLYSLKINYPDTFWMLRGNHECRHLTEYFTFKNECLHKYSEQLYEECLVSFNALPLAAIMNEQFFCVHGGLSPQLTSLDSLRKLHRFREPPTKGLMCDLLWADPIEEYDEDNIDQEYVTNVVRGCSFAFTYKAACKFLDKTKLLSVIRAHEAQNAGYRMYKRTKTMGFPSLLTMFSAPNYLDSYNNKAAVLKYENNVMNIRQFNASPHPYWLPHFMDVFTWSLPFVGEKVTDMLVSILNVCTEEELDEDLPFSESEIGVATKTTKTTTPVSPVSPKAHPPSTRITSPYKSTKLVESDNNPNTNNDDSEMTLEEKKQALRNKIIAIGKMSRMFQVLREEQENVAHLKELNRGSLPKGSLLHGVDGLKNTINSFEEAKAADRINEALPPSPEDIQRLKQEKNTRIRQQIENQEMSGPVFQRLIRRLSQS

T10 sequence (P41145 whole entry): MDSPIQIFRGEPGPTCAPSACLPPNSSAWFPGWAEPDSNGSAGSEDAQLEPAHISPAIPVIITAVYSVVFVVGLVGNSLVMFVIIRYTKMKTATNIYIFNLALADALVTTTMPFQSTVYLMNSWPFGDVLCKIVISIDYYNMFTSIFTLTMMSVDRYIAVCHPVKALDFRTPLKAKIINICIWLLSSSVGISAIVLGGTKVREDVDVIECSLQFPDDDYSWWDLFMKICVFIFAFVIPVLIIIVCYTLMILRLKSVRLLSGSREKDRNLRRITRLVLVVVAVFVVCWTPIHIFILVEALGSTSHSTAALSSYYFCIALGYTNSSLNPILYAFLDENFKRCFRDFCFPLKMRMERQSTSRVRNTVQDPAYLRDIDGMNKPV
T1 sequence (P09923 whole entry): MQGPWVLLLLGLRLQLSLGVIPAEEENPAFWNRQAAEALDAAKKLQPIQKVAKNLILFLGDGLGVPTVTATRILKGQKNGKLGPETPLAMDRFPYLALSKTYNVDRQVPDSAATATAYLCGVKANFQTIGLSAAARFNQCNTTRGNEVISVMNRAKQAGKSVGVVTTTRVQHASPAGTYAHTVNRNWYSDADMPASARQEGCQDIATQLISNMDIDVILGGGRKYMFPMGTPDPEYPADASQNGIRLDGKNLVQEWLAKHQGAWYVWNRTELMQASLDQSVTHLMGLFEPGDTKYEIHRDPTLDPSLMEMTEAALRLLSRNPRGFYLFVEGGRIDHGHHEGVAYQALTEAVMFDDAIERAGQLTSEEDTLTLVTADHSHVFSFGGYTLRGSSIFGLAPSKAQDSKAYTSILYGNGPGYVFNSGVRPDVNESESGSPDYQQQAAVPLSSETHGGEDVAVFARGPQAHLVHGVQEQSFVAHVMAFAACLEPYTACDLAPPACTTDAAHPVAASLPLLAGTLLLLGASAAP
T11 sequence (P35372 whole entry): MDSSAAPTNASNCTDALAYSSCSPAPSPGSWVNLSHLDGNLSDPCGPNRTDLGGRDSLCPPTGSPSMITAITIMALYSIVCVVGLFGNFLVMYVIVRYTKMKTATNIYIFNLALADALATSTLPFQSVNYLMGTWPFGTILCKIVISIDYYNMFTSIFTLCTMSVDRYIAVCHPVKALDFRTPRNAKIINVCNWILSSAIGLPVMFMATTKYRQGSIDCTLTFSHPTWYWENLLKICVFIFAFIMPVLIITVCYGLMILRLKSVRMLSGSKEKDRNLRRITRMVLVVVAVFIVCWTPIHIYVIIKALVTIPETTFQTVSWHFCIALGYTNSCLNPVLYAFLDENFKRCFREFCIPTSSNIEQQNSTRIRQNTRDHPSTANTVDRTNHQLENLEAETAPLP
T2 sequence (P24822 whole entry): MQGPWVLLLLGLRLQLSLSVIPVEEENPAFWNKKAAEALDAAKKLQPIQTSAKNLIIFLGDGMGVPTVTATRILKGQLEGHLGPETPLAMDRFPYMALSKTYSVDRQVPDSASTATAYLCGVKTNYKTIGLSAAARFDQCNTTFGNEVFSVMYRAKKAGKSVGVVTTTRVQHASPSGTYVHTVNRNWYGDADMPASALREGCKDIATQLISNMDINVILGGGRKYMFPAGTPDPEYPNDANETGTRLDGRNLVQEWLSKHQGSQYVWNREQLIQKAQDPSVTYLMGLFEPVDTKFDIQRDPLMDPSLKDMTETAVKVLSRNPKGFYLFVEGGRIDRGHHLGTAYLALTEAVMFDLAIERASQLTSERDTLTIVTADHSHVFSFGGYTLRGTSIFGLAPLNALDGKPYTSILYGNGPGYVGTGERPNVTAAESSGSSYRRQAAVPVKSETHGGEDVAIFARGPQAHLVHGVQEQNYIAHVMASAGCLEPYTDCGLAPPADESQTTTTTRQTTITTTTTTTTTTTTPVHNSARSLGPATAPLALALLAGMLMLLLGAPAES
T6 sequence (P63165 whole entry): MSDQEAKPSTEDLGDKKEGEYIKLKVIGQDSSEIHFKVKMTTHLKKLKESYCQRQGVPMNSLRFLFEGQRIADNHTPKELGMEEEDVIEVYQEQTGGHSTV
T9 sequence (P41143 whole entry): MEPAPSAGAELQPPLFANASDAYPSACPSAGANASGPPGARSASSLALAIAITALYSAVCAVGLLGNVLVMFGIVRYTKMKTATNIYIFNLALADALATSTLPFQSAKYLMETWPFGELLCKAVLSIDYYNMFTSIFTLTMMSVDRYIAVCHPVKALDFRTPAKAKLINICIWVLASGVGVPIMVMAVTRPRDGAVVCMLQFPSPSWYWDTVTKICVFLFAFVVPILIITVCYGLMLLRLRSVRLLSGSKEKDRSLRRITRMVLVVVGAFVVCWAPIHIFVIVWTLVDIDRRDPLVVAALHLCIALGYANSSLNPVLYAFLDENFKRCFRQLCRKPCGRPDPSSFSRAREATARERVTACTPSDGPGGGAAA
Chain of DNA (cytosine-5)-methyltransferase 1 (P26358 whole entry): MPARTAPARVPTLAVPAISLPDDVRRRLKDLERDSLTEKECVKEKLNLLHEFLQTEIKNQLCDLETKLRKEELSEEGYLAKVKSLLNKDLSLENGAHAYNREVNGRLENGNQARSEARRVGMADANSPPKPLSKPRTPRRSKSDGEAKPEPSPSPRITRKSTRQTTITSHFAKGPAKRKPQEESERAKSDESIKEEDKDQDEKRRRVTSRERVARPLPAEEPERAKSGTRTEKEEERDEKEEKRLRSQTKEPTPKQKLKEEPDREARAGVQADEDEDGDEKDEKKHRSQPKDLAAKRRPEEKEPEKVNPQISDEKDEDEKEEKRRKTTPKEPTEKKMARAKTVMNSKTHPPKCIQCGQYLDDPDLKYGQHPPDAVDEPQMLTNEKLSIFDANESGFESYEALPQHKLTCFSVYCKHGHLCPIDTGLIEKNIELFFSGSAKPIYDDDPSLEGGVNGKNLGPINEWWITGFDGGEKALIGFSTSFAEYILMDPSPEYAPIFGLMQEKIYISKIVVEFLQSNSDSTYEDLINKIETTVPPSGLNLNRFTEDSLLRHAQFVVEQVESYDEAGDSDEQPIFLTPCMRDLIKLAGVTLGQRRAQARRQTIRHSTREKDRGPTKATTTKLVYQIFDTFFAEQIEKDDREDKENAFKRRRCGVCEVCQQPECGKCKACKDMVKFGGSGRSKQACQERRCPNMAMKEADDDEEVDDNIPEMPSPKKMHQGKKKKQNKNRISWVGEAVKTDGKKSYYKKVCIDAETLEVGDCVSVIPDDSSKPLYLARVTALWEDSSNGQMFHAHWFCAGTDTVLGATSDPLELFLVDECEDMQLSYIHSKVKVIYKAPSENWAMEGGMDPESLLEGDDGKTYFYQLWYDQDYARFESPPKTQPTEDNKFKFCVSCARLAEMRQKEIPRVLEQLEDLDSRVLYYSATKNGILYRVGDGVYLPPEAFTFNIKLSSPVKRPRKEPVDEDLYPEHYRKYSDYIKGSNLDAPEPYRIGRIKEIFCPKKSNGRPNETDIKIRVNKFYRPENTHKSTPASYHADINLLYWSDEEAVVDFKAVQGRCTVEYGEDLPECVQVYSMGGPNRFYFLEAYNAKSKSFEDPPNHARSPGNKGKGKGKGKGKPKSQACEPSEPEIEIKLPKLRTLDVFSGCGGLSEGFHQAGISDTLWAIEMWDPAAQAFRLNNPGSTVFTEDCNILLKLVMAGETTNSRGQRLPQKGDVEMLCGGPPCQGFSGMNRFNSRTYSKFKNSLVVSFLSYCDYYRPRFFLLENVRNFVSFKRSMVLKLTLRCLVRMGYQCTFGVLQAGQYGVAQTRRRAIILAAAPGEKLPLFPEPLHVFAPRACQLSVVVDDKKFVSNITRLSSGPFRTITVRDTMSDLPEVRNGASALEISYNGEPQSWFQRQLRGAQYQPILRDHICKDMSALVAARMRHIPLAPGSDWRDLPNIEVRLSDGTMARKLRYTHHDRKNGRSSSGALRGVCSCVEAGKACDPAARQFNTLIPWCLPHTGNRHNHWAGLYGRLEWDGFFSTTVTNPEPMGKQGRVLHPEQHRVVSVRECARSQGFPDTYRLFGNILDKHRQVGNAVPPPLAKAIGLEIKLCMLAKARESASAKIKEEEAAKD
Chain of Large T antigen (P03070 whole entry): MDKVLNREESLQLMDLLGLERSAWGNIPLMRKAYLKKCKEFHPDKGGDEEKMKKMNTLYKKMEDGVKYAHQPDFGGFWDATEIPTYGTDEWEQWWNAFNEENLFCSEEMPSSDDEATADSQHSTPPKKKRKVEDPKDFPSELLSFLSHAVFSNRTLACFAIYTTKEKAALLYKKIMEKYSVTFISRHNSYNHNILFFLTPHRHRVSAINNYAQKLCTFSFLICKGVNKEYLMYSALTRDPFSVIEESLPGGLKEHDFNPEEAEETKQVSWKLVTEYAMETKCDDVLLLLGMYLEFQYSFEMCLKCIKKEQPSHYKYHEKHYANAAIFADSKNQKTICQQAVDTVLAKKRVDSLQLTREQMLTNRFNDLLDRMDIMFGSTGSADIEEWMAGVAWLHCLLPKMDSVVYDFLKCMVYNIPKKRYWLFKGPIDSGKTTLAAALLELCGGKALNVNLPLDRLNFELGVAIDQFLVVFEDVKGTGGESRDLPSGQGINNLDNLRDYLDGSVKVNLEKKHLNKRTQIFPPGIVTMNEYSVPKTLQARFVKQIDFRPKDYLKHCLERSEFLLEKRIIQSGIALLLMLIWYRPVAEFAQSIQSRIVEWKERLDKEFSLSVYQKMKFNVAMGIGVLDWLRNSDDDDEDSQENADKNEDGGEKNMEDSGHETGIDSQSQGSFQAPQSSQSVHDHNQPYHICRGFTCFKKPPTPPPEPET
Chain of Phosphomannomutase 2 (O15305 whole entry): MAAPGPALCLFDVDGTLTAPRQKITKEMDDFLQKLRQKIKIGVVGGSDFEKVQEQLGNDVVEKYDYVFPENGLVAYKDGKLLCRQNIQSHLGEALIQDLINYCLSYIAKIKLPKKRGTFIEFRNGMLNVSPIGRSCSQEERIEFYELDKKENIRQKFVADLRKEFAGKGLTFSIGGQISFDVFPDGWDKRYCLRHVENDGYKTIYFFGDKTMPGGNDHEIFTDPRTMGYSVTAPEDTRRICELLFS

Oc1cc(O)c2c(c1)OC(c1ccc(O)c(O)c1)C(O)C2 (stereo not drawn)
IC50 [1]: > 100 µM (inactive)
IC50 [2]: 24.1 µM (active)
IC50 (Large T antigen): 8.64 µM (active)
IC50 [3]: > 100 µM (inactive)

C=C(C)C(=O)Nc1cccc(C2=NOC3(C2)C[C@@H](C(N)=O)N(C(=O)/C(C)=C/C)C3)c1 (stereo partly drawn)
IC50 [4]: 23.6 µM (not active)
IC50 [5]: > 50 µM (inactive)
IC50 [6]: 0.54 µM (active)
IC50 [7]: 1.94 µM (active)
IC50 [8]: > 66.6 µM (inactive)
IC50 [9]: 17.7 µM (active)
IC50 [10]: 0.869 µM (active)
EC50 [11]: 1.69 µM (active)

Cc1nc2c3ccccc3nc(NNC(=O)CCC(=O)NCCC(C)C)n2n1
EC50 [12]: 19.2 µM (active)
EC50 [13]: 12.5 µM (active)
IC50 [14]: 50.4 µM (active)
EC50 [15]: 7.93 µM (active)

COc1cc(/N=c2\ssnc2Cl)c(OC)cc1Cl
IC50 (Phosphomannomutase 2): 97.3 µM (active)
IC50 [16]: 6.24 µM (active)
IC50 [17]: 15.2 µM (active)
IC50 [18]: 3.12 µM (active)

COc1ccc(CC2(CO)CCN(Cc3nccn3-c3cccc(C)c3)CC2)cc1
IC50 [19]: > 32 µM (inactive)
EC50 [20]: > 32 µM (inactive)
EC50 (Mu-type opioid receptor [21]): > 32 µM (inactive)
IC50 [22]: > 32 µM (inactive)
EC50 [23]: > 10 µM (inactive)
EC50 [24]: > 32 µM (inactive)
IC50 (Mu-type opioid receptor [25]): > 32 µM (inactive)

Nc1nccnc1C(=O)Nc1nnc(SCc2ccc(Cl)cc2)s1
EC50 [26]: > 285 µM (inactive)
